We go through 10 molecules from paper PMC9147645, “Food-Derived β-Carboline Alkaloids Ameliorate Lipid Droplet Accumulation in Human Hepatocytes” (Pharmaceuticals, 2022).

The subject of series [1] is HepG2 cells. As to the kind of experiment: Lipid droplet accumulation inhibition (LDAI) assay, Oil Red O, oleic acid-loaded cells. Format: cell-based, human. The conditions noted are these: for Induction of LDs: HepG2. The method, then: LDAI assay: LDAI activity was determined using an Oil Red O assay with 24-well plates (n = 4 per treatment). Staining of LDs in cultured hepatocytes was performed according to the manufacturer’s instructions, based on the Oil Red O staining assay. Briefly, HepG2 cells (1.5 × 10^4/well) were supplemented with 10% FBS, cultured, seeded in 35-mm dishes, and treated with the tested samples after 24 h. Oil Red O, a fat-soluble dye, is widely used for staining neutral lipids in LDs, as described in the Supplementary Materials. […]
2 1.2. Cytotoxicity assay dropwise under ice-cooling. […]
Lipid droplet accumulation inhibition assay and Real-Ti me LDAI acid tryptophan (9) and compound 12 were subjected to acid conversion at 90 °C accumulation in acetic acid to obtain compound 2 (1H and 13C, see in Supporting Information). Lipid droplet accumulation inhibition (LDAI) activity was determined using an Synthesis of Compound 4. To a stirred soln . compound 3 in MeOH was added oilred assay in a 24-well plate according to the manufacturer ’sinstructions (n = 4 with NaOH (2 mol/L). Compound 4 was obtained after stirringthe mixture at 65℃ per each treatment). Real-time oleic induced-LD inhibition was performed by for 5 h. (1H and 13C, see Figures S10 and S11). We also prepared similar using a Nikkon microscope. Morphological analysis of HepG2 cells after compounds without any substituent at the C-1 position in the C-ring using a one- treatment with control(-OA) and (+OA) or compound at different concentrations pot Pictet–Spengler reaction (6-8). was determined by staining with AO/EB.
Synthetic b-carboline alkaloids (1-8): 1.4. Oil Red O Staining.
CAS Registry Number of all the series of synthetic b-carboline alkaloids (1-8) HepG2 cells were cultured and treated in 35 mm dishes, as described above. were subjected to biological evaluation: 1H-Pyrido[3,4-b]indole-3-carboxylic acid, Oil Red O dye was used for LD staining. Oil Red O was dissolved in isopropanol 1-[5-[(acetyloxy)methyl]-2-furanyl]-2,3,4,9-tetrahydro-, methyl ester, (1S-trans)- as 3 mg/mL and diluted with water so that isopropanol became 60%. Oil Red O (9CI) (1,CAS Registry Number 11 5 1 0 7-75-0;11 5 1 0 7-76-1);2,3,4,9-Tetrahydro-1-solutionwasfilteredbya0.4 μm pore syringe filter.For cellular staining, the […]

The nature of series [2]: Cytotoxicity / lipocytotoxicity assay (CCK-8). Format: cell-based. Conditions: human; for IC50 at 24 h: HepG2, values given in the text, read-out: IC50 (cytotoxicity, cell viability). The procedure: (§1) HepG2 cells were purchased from the American Type Culture Collection (ATCC) (Manassas, VA, USA). High-glucose DMEM containing 10% heat-inactivated FBS and 1% penicillin–streptomycin was maintained under a humidified atmosphere at 37 °C with 5% CO2, as indicated in the Supplementary Materials. HepG2 cells (1.5 × 10^4/well) in DMEM supplemented with 10% FBS were seeded into a 96-well plate. A cytotoxicity assay was performed according to the manufacturer’s protocol using CCK-8 (Dojindo Molecular Technologies), as indicated in the Supplementary Materials (Materials and Methods). […]
(§2) 2 1.2. Cytotoxicity assay […] HepG2 cells (1.5 × 10^4/well) in DMEM supplemented with 10% FBS were under reduced pressure, and H2O (25 ml) was added. Then the solution was seeded into a 96-well plate. The cytotoxicity assay was done using CCK-8 extracted with AcOEt after adjusted to 9–10 with aq. NaOH solution. The organic (Dojindo Molecular Technologies) according to the manufacturer's protocol. […]
(§3) Compounds 1 and 3. To a stirred soln. Compound 10 (218 mg, 1.00 mmol), 5- Technologies, Rockville, USA) according to the manufacturer ’sinstructions. Cell Acetoxymethylfurfural (1, 168 mg, 1.00 mmol) and Nano CuO (7.955 mg, 0.1 suspension (100 μl/well) was inoculated in a 96-well plate (Iwaki, Japan), and mmol) were added 6 ml of DMF. The mixture was stirred at 90℃ for 16 h. The pH once monolayers were observed, treatments were added (n = 3 per each of the aqueous solution was adjusted to 9–10 with aq NaOH solution after adding treatment). Cells were then pre-incubated with the treatments for 24 h before H O. After extracting the solution with AcOEt, the organic layer was washed with assay to determine cell viability.Absorbance was measured at 450 nm using a 2 plate reader (PerkinElmer-ARVO-MX-ID 10533234, Japan). […]
(§4) [5-(hydroxymethyl)-2-furanyl]-1H-pyrido[3,4-b]indole-3-carboxylic acid (2, CAS culture medium was removed from each dish, and cells were washed Registry Number 896466-77-6); flazine methyl ester acetate (3, CAS Registry and rinsed with 1× PBS. Cells were then fixed for 20 min in 10% formalin and Number 104537-95-3); flazin (4, CAS Registry Number 100041-05-2); washed twice using PBS. Then, Oil Red O dye was added to the dishes and incubated for 20 min. Finally, the dye was removed from each dish and cells 5

Series [3] concerns nuclear factor erythroid 2-related factor 2 (Nrf2). The conditions noted are these: hepatocytes; cited from earlier work.
Another series relates to human HepG2. Also noted: method as in PMID 30103390. Conditions: human HepG2, 180 μM; cited from earlier work.
Series [4] concerns HepG2 cells. Conditions: 100 μM; cited from earlier work.
The subject of series [5] is HepG2 cells. Briefly: Cytotoxicity / lipocytotoxicity assay (CCK-8). Format: cell-based. The conditions noted are these: 0.25 mM oleic acid, 24 h, HepG2. The method, then:
as §1, §2, §3, §4

[6] abbreviates: Homo sapiens, HepG2, 24 h, HepG2 + 0.25 mM oleic acid, vs untreated control (+OA).
[7] abbreviates: HepG2 cells, HepG2, DMEM loaded with fatty acid (+OA), read-out: Lipocytotoxicity (LC50), concentration at which 50% of cells died.
The mark [8] stands for this setting: HepG2 cells, HepG2, DMEM without fatty acid (−OA), read-out: Cytotoxicity (CC50), concentration at which 50% of cells died.

Read-outs that look alike come from different tables or passages of the source.

A word on the inhibition: it is the relative decrease from the control value, in per cent. As usually defined, the IC50 is the concentration needed to halve the response being measured. For `COC(=O)[C@@H]1Cc2c([nH]c3ccccc23)C(c2ccc(COC(C)=O)o2)N1` (stereo partly shown) [Compound 1, Methyl 1,2,3,4-Tetrahydro-1-(5-[(acetyloxy)methyl]-2-furanyl)-9H-pyrido [3,4-b]indole-3-carboxylic acid], the inhibition at 400 µM in the series with HepG2 cells [1] (setting [6]) was 63.2%. The CC50 at 24 h in series [2] (setting [7]) amounted to 442 µM; in series [2] (setting [8]), 488 µM. Also, in series [2] (HepG2 cells), the IC50 at 24 h was found to be 488 µM.

As for `COC(=O)c1cc2c([nH]c3ccccc32)c(-c2ccc(COC(C)=O)o2)n1` [Compound 3, flazin methyl ester acetate], in the series on HepG2 cells [1] (Homo sapiens, HepG2, 24 h, 50 μM, HepG2 + 0.25 mM oleic acid, vs untreated control (+OA)), the inhibition at 50 µM came out at 26%. Further, the CC50 at 24 h in series [2] (setting [7]) worked out at 131 µM; in series [2] (setting [8]), 66.8 µM. In addition, in series [2] (HepG2 cells), the IC50 at 24 h stood at 66.9 µM.

For the molecule `COC(=O)C1Cc2c([nH]c3ccccc23)CN1` (stereo not drawn) [Compound 5, methyl 1,2,3,4-tetrahydro-β-carboline-3-carboxylate], the inhibition at 400 µM in the series on HepG2 cells [1] (setting [6]) was 42%. Besides, the CC50 at 24 h in series [2] (setting [7]) worked out at 488 µM; in series [2] (setting [8]), 397 µM.

Regarding `O=C(O)C1Cc2c([nH]c3ccccc23)CN1` (stereo not drawn) [Compound 6, 1,2,3,4-Tetrahydro-β-carboline-3-carboxylic acid], the CC50 at 24 h was determined as 520 µM in series [2] (setting [7]) and 505 µM in series [2] (setting [8]).

For the molecule `COC(=O)c1cc2c(cn1)[nH]c1ccccc12` [Compound 7, methyl β-carboline-3-carboxylate], the inhibition at 400 µM in the series with HepG2 cells [1] (Homo sapiens, 24 h, HepG2 + 0.25 mM oleic acid, vs untreated control (+OA)) came out at 25.4%. Besides, the CC50 at 24 h in series [2] (HepG2, DMEM loaded with fatty acid (+OA), read-out: Lipocytotoxicity (LC50), concentration at which 50% of cells died) was 498 µM; in series [2] (HepG2, DMEM without fatty acid (−OA), read-out: Cytotoxicity (CC50), concentration at which 50% of cells died), 390 µM.

Take `O=C(O)c1cc2c(cn1)[nH]c1ccccc12` [Compound 8, β-Carboline-3-carboxylic acid]: in the series with HepG2 cells [1] (setting [6]), the inhibition at 400 µM worked out at 81.8%. For the same molecule, the values for the CC50 at 24 h in series [2] (setting [7]) and in series [2] (setting [8]) were 530 µM and 549 µM, respectively.

For `COc1c(O)cc(CO)cc1O` [DHMBA, 3,5-dihydroxy-4-methoxybenzyl alcohol, reference compound], the Nrf2-dependent antioxidant action result in series [3] is given as “Nrf2-dependent antioxidant action”.

Turning to `Oc1cc(O)c2cc(O)c(-c3cc(O)c(O)c(O)c3)[o+]c2c1` [Delphinidin], the Hepatic triglyceride accumulation entry with human HepG2 is “ameliorated hepatic triglyceride accumulation”.

With `O=c1c(-c2ccc(O)cc2)coc2c([C@@H]3O[C@H](CO)[C@@H](O)[C@H](O)[C@H]3O)c(O)ccc12` [Puerarin], the Hepatic steatosis entry with HepG2 cells [4] is given as “ameliorates hepatic steatosis”.

As for `CCCCCCCC/C=C\CCCCCCCC(=O)O` [oleic acid, reference compound], the “Induction of LDs” value in the series on HepG2 cells [1] (0.25 mM oleic acid, 24 h) is 2.6 fold; in the series on HepG2 cells [1] (0.5 mM oleic acid, 24 h), 2.8 fold. The “Cell viability after oleic acid treatment (in words)” value in the series on HepG2 cells [5] was “no cytotoxicity”.
